Source: US11479529B2, “Compounds with antimicrobial activity” (The Hong Kong Polytechnic University, priority 2018, dated 2022)
Values after ≈ are worked out from the molar mass of the structure shown. Values joined by “and” are separate entries in the source; they are usually repeats but may differ in a detail not shown here. Identical values can stand only once.

Assays:
Cytotoxicity assay, A549 = type: cell-based, human; settings: human, A549 lung carcinoma cells
Experimental: (§1) Cytotoxicity assay was performed as detailed previously^43 except A549 lung carcinoma and HaCaT immortalized human keratinocytes were used in this study.

[1] = Cytotoxicity assay, HaCaT; type: cell-based; settings: HaCaT immortalized human keratinocytes
Experimental: as §1

[2] = tested on: community-acquired MRSA strain USA300; test: Microdilution assay (MIC) against community-acquired MRSA strain USA300; type: cell-based; settings: Staphylococcus aureus, read-out: minimum inhibitory concentration (MIC)
Experimental: (§2) The antimicrobial activity of the seven compounds against community-acquired MRSA strain USA300 were first screened. […] With a molecular weight of 266.3, MC4 has been reported to be of use only to form a metal complex dye in optical layers for optical data recording.^26 The antimicrobial activities of MC4 against a panel of representative strains of pathogens were then tested.
(§3) Bacterial Strains and Chemicals. The following bacterial strains were used in this study for the microdilution assay: Enterococcus faecalis ATCC 29212, Klebsiella pneumonia ATCC 700603, Acinetobacter baumannii ATCC 19606, Pseudomonas aeruginosa PA01, Enterobacter cloacae ATCC 13047, E. coli ATCC 25922, Proteus vulgaris ATCC 6380, and S. aureus USA300, ATCC 25923, ATCC 29213, ST22, ST30, ST45, ST59, ST239, JE-2, BAA44. E. coli strain DH5a (Gibco BRL) was used in this study for cloning and BL21 (DE3) pLysS^23 was used for protein overproduction. 5-fluorouracil, rifampicin and other antibiotics used in the microdilution assay were purchased from SigmaAldrich. Compounds MC1-7 were purchased from MolPort.
(§4) Antibacterial activity test. Microdilution assay was performed according to the Clinical & Laboratory Standards Institute recommendations.^42 Serial 2-fold dilutions of the tested compounds and antibiotic controls were made from 256 μg/ml to 0.5 μg/ml. DMSO was included as a negative control.

S. aureus 25923 = test: Microdilution assay (MIC) against control strain S. aureus 25923; type: cell-based; settings: Staphylococcus aureus
Experimental: as §2, §3, §4

[3] = tested on: healthcare acquired MRSA ST239; test: Microdilution assay (MIC) against healthcare acquired MRSA ST239; type: cell-based, Staphylococcus aureus
Experimental: as §2, §3, §4

A549 lung carcinoma = test: Cytotoxicity assay, A549; type: cell-based, human; settings: mammalian cell lines (Table 1: A549, HaCaT), compared to 5-fluorouracil
Experimental: as §1

[4] = tested on: S. aureus ATCC 25923 cells; test: DNA, protein and rRNA quantitation in treated cells; type: cell-based, Staphylococcus aureus; settings: one-quarter MIC, exponential growth, versus control cells
Experimental: The level of macromolecules in S. aureus ATCC 25923 cells during exponential growth due to MC4 treatment were analyzed.
DNA, protein and rRNA quantitation. MC4, oxacillin and rifampicin at ¼ MIC level were added to S. aureus strain ATCC 25923 in LB medium at early log phase (OD595=0.2), which was then grown to mid-log phase (OD595==0.5). For DNA and protein quantitation, 1 ml cells were harvested and treated with 10 mg/ml lysozyme+0.5 mg/ml lysostaphin at RT for 1 hr before centrifugation at 13000 g/min for 3 min. The supernatant was discarded and cells lysed with 600 μl Nuclei Lysis Solution (Promega/Genomic DNA Purification Kit) for 5 min, followed by gentle sonication. The amount of DNA was quantified with Qubit dsDNA BR (broad range) and protein quantified with NanoOrange™ Protein Quantitation Kit (ThermoFisher). For rRNA quantitation, 1 ml culture was collected and treated with RNAProtect (Qiagen), before total RNA was extracted with an RNeasv Mini Kit (Qiagen). DNase I treatment was performed with a TURBO DNA-free Kit (ThermoFisher). The extracted RNA was subjected to Agilent 2100 analysis, and the level of major rRNA (the sum of 16S+23S rRNA) as percentage of total RNA. The values were compared across each treatment group. All experiments were repeated three times.

NusB-NusE interaction = target: T1, NusB-NusE interaction (Bacillus subtilis, UniProt P54520); test: ELISA-based inhibitory assay of NusB-NusE heterodimer formation; type: binding, B. subtilis; settings: NusB coated plate, GST-tagged NusE probe; read-out: IC50, inhibition of the NusB-NusE interaction
T1 construct: 6xHis (N); made in house; host or cells: E. coli BL21 (DE3) pLysS
Experimental: Finally, to establish MC4's mode of action at the molecular level, an enzyme-linked immunosorbant assay-based inhibitory assay was performed to assess the in vitro inhibition of NusB-NusE heterodimer formation by MC4.^24 Purified NusB was used to coat the 96-well plate, and GST-tagged NusE was used as the probe. […] With the change in the phenyl acetylene group to phenols, the IC50 values of the corresponding MC4 analogues increased, while deletion of this terminal triple bond or replacing by methyl or chloride caused a reduced IC50. When p-nitrophenol was modified to o-nitrophenol, the IC50 values increased, probably because of the involvement of the phenol group in the binding interaction with NusB Y81 (Table 3).
Protein overproduction and purification. B. subtilis NusB (wild type and mutant) and NusE-GST were overproduced from plasmids (Table 2) and purified using a similar approach to that described previously.^45 Purified proteins were dialyzed into 20 mM KH2PO4, 150 mM NaCl, 30% glycerol, pH 7.8 and stored at […].
ELISA-based assays. These assays were performed as described previously,^41 except NusB was used to coat the NUNC MaxiSorp™ 96-well plates and GST-tagged NusE used as the probe.

[5] = target: T2, B. subtilis NusB wild type protein (Bacillus subtilis, UniProt P54520); test: Isothermal titration calorimetry, NusB wild type; type: binding; settings: ITC
T2 construct: 6xHis (N); made in house; host or cells: E. coli BL21 (DE3) pLysS
Experimental: (§5) The interaction between MC4 and NusB was also biophysically quantified. […] Further experiments will be performed to resolve the structure of NusB in complex with MC4 for target validation, as well as structure-based lead optimization.
(§6) Isothermal calorimetric titration (ITC). ITC experiments were performed as described previously.^41 For compound testing, a 50 mM stock made up in DMSO was diluted to 500 μM in ITC buffer (50 mM KH2PO4, 150 mM NaCl, pH 7.4). All proteins were dialysed into ITC buffer and were supplemented with the same concentration of DMSO (1% v/v) to minimize buffer miss-match. MC4 was then titrated against 50 μM NusB wild type and mutants as described previously^41 using 1% DMSO in ITC buffer as the negative control.

NusE = target: T3, NusE (Bacillus subtilis, UniProt P21471); test: Isothermal titration calorimetry, NusE; type: binding, B. subtilis
T3 construct: 3C protease site + GST (C); made in house; host or cells: E. coli BL21 (DE3) pLysS

[6] = tested on: NusB variants (Y18A, D76A, and D81A); test: Isothermal titration calorimetry, NusB variants; type: binding, B. subtilis
Experimental: as §5, §6

T1 sequence (P54520 whole entry): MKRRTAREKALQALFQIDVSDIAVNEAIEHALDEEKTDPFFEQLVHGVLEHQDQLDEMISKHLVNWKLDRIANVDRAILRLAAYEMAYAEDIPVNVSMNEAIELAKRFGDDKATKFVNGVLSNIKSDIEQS
T2 sequence (P54520 whole entry): as above

SMILES: O=c1[nH]cc(F)c(=O)[nH]1 [5-fluorouracil, reference compound]
- CC50 (Cytotoxicity assay, A549): 0.00562 ± 2e-06 µM
- CC50 [1]: < 0.001 µM

SMILES: C#Cc1cccc(/N=C/c2cc([N+](=O)[O-])ccc2O)c1 [MC4, (E)-2-[[(3-ethynylphenyl)imino]methyl]-4-nitrophenol]
- MIC [2]: 64 mg/L (≈ 240 µM)
- MIC (S. aureus 25923): 8 mg/L (≈ 30 µM)
- MIC [3]: 16 mg/L (≈ 60.1 µM)
- CC50 (Cytotoxicity assay, A549): 183 ± 7.71 µM
- cytotoxicity against mammalian cell lines (A549 lung carcinoma): did not show significant cytotoxicity
- CC50 [1]: 695.1 ± 5.95 µM
- DNA level [4]: none of the treatment affected the DNA level
- protein level [4]: significant reduction in the protein level
- rRNA level (16S+23S) [4]: significant reduction in the rRNA level
- IC50 (NusB-NusE interaction): ~34.7 µM and 34.7 µM
- N [5]: 0.988±0.076
- ΔH [5]: -29.88 ± 3.932 kJ/mol
- ΔS [5]: −1.81 cal/mol/deg
- Kd ([5]; one-site binding mode): 1.45 ± 0.55 µM
- Binding to NusE by ITC (NusE): could not be detected
- Binding to NusB variants by ITC [6]: could not be detected

SMILES: O=[N+]([O-])c1cccc(/C=N/c2ccccc2)c1O [MC4-1, 2-nitro-6-[(E)-(phenylimino)methyl]phenol]
- IC50 (NusB-NusE interaction): 14.4 ± 2.59 µM

SMILES: O=[N+]([O-])c1ccc(O)c(C=Nc2ccccc2)c1 [MC4-4, 4-nitro-2-[(phenylimino)methyl]phenol]
- IC50 (NusB-NusE interaction): 147 ± 17.9 µM

SMILES: Cc1cccc(/N=C/c2cc([N+](=O)[O-])ccc2O)c1 [MC4-5, 2-{(E)-[(3-methylphenyl)imino]methyl}-4-nitrophenol]
- IC50 (NusB-NusE interaction): 971 ± 11.6 µM

SMILES: O=[N+]([O-])c1ccc(O)c(/C=N/c2ccc(O)cc2)c1 [MC4-6, 2-{(E)-[(4-hydroxyphenyl)imino]methyl}-4-nitrophenol]
- IC50 (NusB-NusE interaction): 0.00815 µM

SMILES: O=[N+]([O-])c1ccc(O)c(/C=N/c2ccc(Cl)cc2)c1 [MC4-7, 2-{(E)-[(4-chlorophenyl)imino]methyl}-4-nitrophenol]
- IC50 (NusB-NusE interaction): 1639 ± 12.7 µM

SMILES: O=[N+]([O-])c1ccc(O)c(/C=N/c2cccc(O)c2)c1 [MC4-8, 2-{(E)[(3-hydroxyphenyl)imino]methyl}-4-nitrophenol]
- IC50 (NusB-NusE interaction): 0.00692 µM

SMILES: Cc1onc(-c2ccccc2)c1C(=O)N[C@@H]1C(=O)N2[C@@H]1SC(C)(C)[C@@H]2C(=O)O [oxacillin, reference compound]
- DNA level [4]: none of the treatment affected the DNA level
- protein level [4]: slightly higher than those of control cells
- rRNA level (16S+23S) [4]: slightly higher than those of control cells
